Here are results for one compound from patent publication US11691974B2, “3,9-diazaspiro[5,5]undecane compound as FLT3 and AXL inhibitors” (MEDSHINE DISCOVERY INC., priority 2018, dated 2023).

The target of one data set is T1, FLT3(ITD, F691L) (Homo sapiens, UniProt P36888, F691L, form not given).
T1 sequence (P36888 1-993 F691L): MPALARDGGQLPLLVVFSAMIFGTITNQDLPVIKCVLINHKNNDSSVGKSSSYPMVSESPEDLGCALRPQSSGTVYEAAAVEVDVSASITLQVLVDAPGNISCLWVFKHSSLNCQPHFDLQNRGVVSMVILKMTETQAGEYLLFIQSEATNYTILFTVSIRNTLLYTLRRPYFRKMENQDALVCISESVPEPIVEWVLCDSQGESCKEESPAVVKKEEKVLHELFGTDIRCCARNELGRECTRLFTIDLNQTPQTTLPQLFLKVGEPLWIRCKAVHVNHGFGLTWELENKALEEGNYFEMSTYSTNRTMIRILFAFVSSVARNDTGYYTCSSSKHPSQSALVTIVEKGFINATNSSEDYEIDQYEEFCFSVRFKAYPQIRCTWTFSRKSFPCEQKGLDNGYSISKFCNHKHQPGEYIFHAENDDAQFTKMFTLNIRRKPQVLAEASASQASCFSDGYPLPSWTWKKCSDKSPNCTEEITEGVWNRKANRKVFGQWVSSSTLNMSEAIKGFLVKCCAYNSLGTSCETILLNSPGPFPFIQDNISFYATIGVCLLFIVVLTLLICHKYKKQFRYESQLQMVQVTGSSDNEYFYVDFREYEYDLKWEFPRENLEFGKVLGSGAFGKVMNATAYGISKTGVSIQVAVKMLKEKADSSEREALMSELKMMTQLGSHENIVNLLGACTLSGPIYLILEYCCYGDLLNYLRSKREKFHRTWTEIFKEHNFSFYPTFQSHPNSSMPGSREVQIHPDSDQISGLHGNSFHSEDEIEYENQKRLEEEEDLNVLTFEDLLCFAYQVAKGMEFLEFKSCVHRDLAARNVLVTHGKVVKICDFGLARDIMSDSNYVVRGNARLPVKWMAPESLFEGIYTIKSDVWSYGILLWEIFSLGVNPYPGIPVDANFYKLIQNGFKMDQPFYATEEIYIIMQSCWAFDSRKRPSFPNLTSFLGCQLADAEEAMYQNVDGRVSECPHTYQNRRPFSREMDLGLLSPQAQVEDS
As to the kind of experiment: KINOMEscan Kd determination, FLT3 mutant. Conditions: ratio of Kd versus compound B. The data set is classed as binding. As for the experimental part:
The assay was carried out using KINOMEscan™ technology. The assay compounds were stored in 100% DMSO. The assay was carried out by means of 3-fold dilution and 11-point fitting. All compounds used for Kd determination were dispersed by ultrasound, then directly diluted and tested. All reactions were carried out in a 384-well polypropylene plate. Each portion has a final volume of 0.02 ml. The plate was incubated with shaking at room temperature for 1 hour, and then processed. The kinase concentration in the eluent was finally determined by qPCR method. Kd was obtained by fitting.

Data set [1] can be described thus: In vivo pharmacokinetic study in mice. Further details: species or system CD-1 male mice. The following applies: male, CD-1, mouse, plasma. The method, then:
CD-1 male mice aged 7 to 10 weeks were selected. The doses for intravenous and oral administration were 1 mg/kg and 2.5 mg/kg, respectively. The mice were fasted for at least 12 hours before the administration, and resumed feeding 4 hours after the administration. The mice had free access to water throughout the assay period.
(§1) On the day of the assay, the animals in the intravenous group were administrated the corresponding compound through a single injection in the tail vein at an administration volume of 5 mL/kg; the oral group were administrated the corresponding compound through a single intragastric gavage at an administration volume of 10 mL/kg. The animals were weighed before administration, and the administration volume was calculated based on the body weight. The time for collecting samples was: 0.083 (the injection group), 0.25, 0.5, 1, 2, 4, 8, 24 h. About 30 μL of whole blood was collected from the saphenous vein at each time point to prepare plasma for concentration determination by high-performance liquid chromatography-tandem mass spectrometry (LC-MS/MS). All animals were euthanized by CO2 anesthesia after collecting the PK samples at the last time point. The plasma concentrations were processed by non-compartmental model of WinNonlin™ Version 6.3 (Pharsight, Mountain View, Calif.) pharmacokinetic software, and the pharmacokinetic parameters were calculated by the linear logarithm trapezoidal method.

Data set [2] can be described thus: In vivo pharmacokinetic study in rats. The following applies: male, SD, rat, plasma. As for the experimental part:
SD male rats aged 7 to 10 weeks were selected. The doses for intravenous and oral administration were 1 mg/kg and 2.5 mg/kg, respectively. The rats were fasted for at least 12 hours before the administration, and resumed feeding 4 hours after the administration. The rats had free access to water throughout the assay period.
as §1, with “4, 6,” for “4,”, “200” for “30”, “jugular” for “saphenous”

[3] abbreviates: iv, injection 1 mg/kg, read-out: Vdss.

Usually AUC(0-t) stands for the area under the concentration-time curve up to a stated or last time point. The term clearance denotes the volume of plasma or blood freed of the substance per unit of time. A lower clearance goes with inefficient removal. A word on the half-life: it is the time in which the quantity being followed falls by half. A low value points to rapid decline. As a reminder, the bioavailability is the share of a dose that reaches the circulation, judged against a reference dose that is usually intravenous. Low values mean poor availability, high ones good availability. Consider `CCc1nc(C(N)=O)c(Nc2ccc(N3CCC4(CCN(C)CC4)CC3)c(C)c2)nc1NC1CCOCC1`, for which, at FLT3(ITD, F691L), the “activity for FLT3 (ITD, F691L) higher than that of compound B” value is 3.6 times. The area under the curve AUC(0-t) in data set [1] (iv, injection 1 mg/kg) came to 0.604 µM·h; in data set [1] (oral administration 2.5 mg/kg), 0.598 µM·h; in data set [2] (iv, injection 1 mg/kg), 0.457 µM·h; in data set [2] (oral administration 2.5 mg/kg), 0.51 µM·h. The clearance in data set [1] (iv, injection 1 mg/kg) was 48.5 mL/min/kg; in data set [2] (iv, injection 1 mg/kg), 61.2 mL/min/kg. The half-life was 2.4 h in data set [1] (iv, injection 1 mg/kg); 4.41 h in data set [1] (oral administration 2.5 mg/kg); 2.99 h in data set [2] (iv, injection 1 mg/kg). Further, the Vd in data set [1] (setting [3]) was determined as 8.63 L/kg; in data set [2] (setting [3]), 13.3 L/kg. The bioavailability came out at 37.3% in data set [1] (oral administration 2.5 mg/kg) and 44.7% in data set [2] (oral administration 2.5 mg/kg).
